Data as given in the supplement of paper PMC11451515.

System: SEM cells
Assay: cell viability relative to DMSO control; higher = less cytotoxic
Details: 48 h
Outline: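 In 1536-well plates, 5 μl of leukemia cells were seeded per well: 500 cells/well for NOMO1 or SEM and 1000 cells/well for P12-Ichikawa. Each line had first been adapted for at least four passages in each medium. Library compounds in DMSO were pin-dosed at 11 threefold concentrations between 47 μM and 0.79 nM, and CellTiter-Glo One luminescence was read after 48 h at 37°C. Viability is a per-plate percentage relative to DMSO wells, with cell-free wells as background.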

[1] = HPLM + 10% dialyzed FBS, 0.000781 µM
[2] = HPLM + 10% dialyzed FBS, 0.00234 µM
[3] = HPLM + 10% dialyzed FBS, 0.00702 µM
[4] = HPLM + 10% dialyzed FBS, 0.0211 µM
[5] = HPLM + 10% dialyzed FBS, 0.0632 µM
[6] = HPLM + 10% dialyzed FBS, 0.19 µM
[7] = HPLM + 10% dialyzed FBS, 0.569 µM
[8] = HPLM + 10% dialyzed FBS, 1.71 µM
[9] = HPLM + 10% dialyzed FBS, 5.12 µM
[10] = HPLM + 10% dialyzed FBS, 15.4 µM
[11] = HPLM + 10% dialyzed FBS, 46.1 µM
[12] = RPMI 5 mM glucose + 10% FBS, 0.000781 µM
[13] = RPMI 5 mM glucose + 10% FBS, 0.00234 µM
[14] = RPMI 5 mM glucose + 10% FBS, 0.00702 µM
[15] = RPMI 5 mM glucose + 10% FBS, 0.0211 µM
[16] = RPMI 5 mM glucose + 10% FBS, 0.0632 µM
[17] = RPMI 5 mM glucose + 10% FBS, 0.19 µM
[18] = RPMI 5 mM glucose + 10% FBS, 0.569 µM
[19] = RPMI 5 mM glucose + 10% FBS, 1.71 µM
[20] = RPMI 5 mM glucose + 10% FBS, 5.12 µM
[21] = RPMI 5 mM glucose + 10% FBS, 15.4 µM
[22] = RPMI 5 mM glucose + 10% FBS, 46.1 µM
[23] = RPMI 5 mM glucose + 10% dialyzed FBS, 0.000781 µM
[24] = RPMI 5 mM glucose + 10% dialyzed FBS, 0.00234 µM
[25] = RPMI 5 mM glucose + 10% dialyzed FBS, 0.00702 µM
[26] = RPMI 5 mM glucose + 10% dialyzed FBS, 0.0211 µM
[27] = RPMI 5 mM glucose + 10% dialyzed FBS, 0.0632 µM
[28] = RPMI 5 mM glucose + 10% dialyzed FBS, 0.19 µM
[29] = RPMI 5 mM glucose + 10% dialyzed FBS, 0.569 µM
[30] = RPMI 5 mM glucose + 10% dialyzed FBS, 1.71 µM
[31] = RPMI 5 mM glucose + 10% dialyzed FBS, 5.12 µM
[32] = RPMI 5 mM glucose + 10% dialyzed FBS, 15.4 µM
[33] = RPMI 5 mM glucose + 10% dialyzed FBS, 46.1 µM

SMILES	cell viability [1]	cell viability [2]	cell viability [3]	cell viability [4]	cell viability [5]	cell viability [6]	cell viability [7]	cell viability [8]	cell viability [9]	cell viability [10]	cell viability [11]	cell viability [12]	cell viability [13]	cell viability [14]	cell viability [15]	cell viability [16]	cell viability [17]	cell viability [18]	cell viability [19]	cell viability [20]	cell viability [21]	cell viability [22]	cell viability [23]	cell viability [24]	cell viability [25]	cell viability [26]	cell viability [27]	cell viability [28]	cell viability [29]	cell viability [30]	cell viability [31]	cell viability [32]	cell viability [33]
Cc1c(OCC(F)(F)F)ccnc1C[S+]([O-])c1nc2ccccc2[nH]1 (centres undefined)	96.5%	93.5%	96.4%	97.1%	99%	99.9%	106%	117%	106%	104%	125%	116%	110%	99.7%	107%	105%	126%	111%	124%	115%	104%	101%	97.7%	109%	112%	111%	109%	122%	112%	121%	131%	121%	97.7%
CC(Oc1ccc(O)cc1)(P(=O)(O)O)P(=O)(O)O	108%	105%	98.2%	108%	109%	104%	86.1%	101%	83.3%	65.5%	28.5%	107%	110%	103%	116%	109%	96.2%	92.3%	105%	83.1%	48.4%	25.1%	98.8%	85.7%	103%	97.9%	113%	110%	90.1%	96.3%	74.9%	55.1%	28.6%
CCOC(=O)c1ccc(C#Cc2ccc3c(c2)C(C)(C)CCS3)nc1	105%	105%	109%	116%	111%	75.4%	114%	118%	108%	114%	102%	98%	121%	122%	126%	118%	75.6%	121%	122%	116%	108%	113%	89.2%	100%	101%	98.1%	106%	66.4%	99.5%	94.8%	90%	89.3%	93.5%
CCOc1ccccc1OCCNC(C)Cc1ccc(OC)c([S+](N)(=O)[O-])c1 (centres undefined)	87.1%	82.9%	101%	103%	116%	101%	125%	103%	119%	90.9%	85.8%	93.4%	85.9%	101%	118%	104%	106%	115%	114%	107%	97.6%	105%	112%	88.9%	115%	126%	115%	109%	130%	129%	108%	127%	114%
Cn1c(=O)c2c(ncn2CC(O)CO)n(C)c1=O (centres undefined)	87.4%	101%	116%	92.6%	104%	109%	113%	111%	96%	108%	124%	106%	96.7%	120%	101%	120%	123%	113%	111%	111%	111%	122%	93.1%	120%	99.3%	110%	116%	113%	121%	133%	135%	125%	137%
CC1=C2N=C([NH]C2=CC(=C1)N3CCOCC3)\C4=C(NC[C@@H](O)C5=CC=CC(=C5)Cl)\C=C/NC4=O	77.8%	95.7%	91.4%	91.2%	82.8%	75.8%	61.3%	52.5%	26.9%	19.4%	15.4%	81.3%	105%	122%	115%	94.1%	95.6%	83.7%	56.2%	26.6%	14.2%	8.45%	70.7%	90.3%	84.6%	80.1%	67.9%	75.1%	66.8%	46.7%	21.1%	13.7%	7.96%
NC\1=N\C(=O)N(\C=N1)[C@H]2C[C@H](O)[C@@H](CO)O2	57.8%	100%	94.7%	97.2%	118%	101%	89.8%	71.3%	41%	29.5%	16.5%	54.1%	91.3%	86%	92.9%	107%	92%	81.8%	63.8%	32.2%	22.2%	12.1%	55.1%	99.4%	81%	84.3%	91.4%	93.3%	67.5%	49.1%	32%	27.5%	21.2%
C[C@@H]1CN(CC(=O)N2CC(C)(C)c3ncc(Cc4ccc(F)cc4)cc32)[C@@H](CN2CCOC[C@H]2C)CN1	83.8%	105%	48%	115%	105%	95.2%	113%	85%	105%	104%	73%	76.3%	96.3%	30.4%	104%	92.5%	88.9%	97.8%	89.2%	110%	80.4%	54.9%	86.9%	116%	40.8%	117%	103%	114%	111%	104%	111%	94.5%	75.6%
